Experimental data published in patent US7179800B2 (priority 2002, dated 2007).

Tests used:
CB1 receptor = CB1 receptor (Rattus norvegicus, UniProt P20272); test: CB1 binding procedure: displacement of [3H]CP 55,940 from rat whole-brain P2 membranes; set-up: whole brain was homogenized and centrifuged; from tissue; host or cells: rat whole brain, P2 membrane fraction; conditions: for Ki: means ± SEM, [3H]CP 55,940, rat brain membranes, read-out: Ki (nM) CB1; for fold decrease in CB1 affinity: relative to the comparator analog
CB1 receptor, sequence (P20272 whole entry): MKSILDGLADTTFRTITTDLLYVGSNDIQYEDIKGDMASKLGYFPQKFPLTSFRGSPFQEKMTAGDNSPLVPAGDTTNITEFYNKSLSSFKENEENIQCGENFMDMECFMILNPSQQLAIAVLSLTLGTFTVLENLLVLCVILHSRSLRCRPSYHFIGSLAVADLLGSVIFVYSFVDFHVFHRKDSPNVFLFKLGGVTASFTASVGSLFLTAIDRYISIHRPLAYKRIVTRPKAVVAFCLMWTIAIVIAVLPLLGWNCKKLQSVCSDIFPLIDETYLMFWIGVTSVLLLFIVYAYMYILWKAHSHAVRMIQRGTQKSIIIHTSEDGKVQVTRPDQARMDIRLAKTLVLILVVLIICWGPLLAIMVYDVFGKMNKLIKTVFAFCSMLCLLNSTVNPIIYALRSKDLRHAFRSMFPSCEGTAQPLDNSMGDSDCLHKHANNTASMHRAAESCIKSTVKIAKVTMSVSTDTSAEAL

CB2 receptor = molecular target: T1, CB2 receptor (Homo sapiens, UniProt P34972); test: CB2 binding procedure: displacement of [3H]CP-55,940 from membranes of transfected CHO cells; conditions: for CB1/CB2 (ratio of Ki): CB1 Ki divided by CB2 Ki; for Ki: means ± SEM, [3H]CP-55,940, transfected CHO cell membranes, read-out: Ki (nM) CB2; for fold decrease in CB2 affinity: relative to the comparator analog
T1 construct: expressed in transfected cells; host or cells: CHO cells, G418-selected transfected line
T1 sequence (P34972 whole entry): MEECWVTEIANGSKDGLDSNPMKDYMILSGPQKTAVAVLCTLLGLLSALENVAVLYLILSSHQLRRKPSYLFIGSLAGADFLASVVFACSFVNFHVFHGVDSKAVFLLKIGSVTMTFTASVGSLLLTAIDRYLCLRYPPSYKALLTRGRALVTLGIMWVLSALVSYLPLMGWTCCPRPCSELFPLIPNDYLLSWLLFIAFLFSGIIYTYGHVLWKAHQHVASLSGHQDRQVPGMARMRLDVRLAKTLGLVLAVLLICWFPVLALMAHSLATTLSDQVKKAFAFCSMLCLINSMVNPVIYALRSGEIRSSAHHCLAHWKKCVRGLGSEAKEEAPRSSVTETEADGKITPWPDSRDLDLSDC

Compound | Ki (CB1 receptor) [nM] | fold decrease in CB1 affinity (CB1 receptor) | CB1/CB2 (ratio of Ki) (CB2 receptor) | Ki (CB2 receptor) [nM] | fold decrease in CB2 affinity (CB2 receptor)
CCCCCCC(C)(C)c1cc(O)c(C2CCC(C)CC2)c(O)c1 (stereo not shown) [O-1659, 2-(4-Methylcyclohexyl)-5-(1′,1′-dimethylheptyl)-resorcinol] | 45 ± 1 | about 5 fold | 9 | 5 ± 0.9 | about 5 fold
CCCCCCC(C)(C)c1cc(O)c(C2CCSC2)c(O)c1 (stereo not shown) [O-1661, 2-(Tetrahydrothiophen-3-yl)-5-(1′,1′-dimethylheptyl)-re-sorcinol] | 138 ± 4 |  | 5 | 28 ± 12 | 
CCCC(C)(C)c1cc(O)c(C2CCCC(C)C2)c(O)c1 (stereo not shown) [O-1890, 2-(3-Methylcyclohexyl)-5-(1′,1′-dimethylbutyl)-resorcinol] | 96 ± 4 |  | 7 | 13 ± 1 | 
CCCCCCC(C)(C)c1cc(O)c(C2CCSCC2)c(O)c1 [O-1425] | 153 ± 17 | 14 fold | 13 | 12 ± 2 | 8 fold
CCCCCCC(C)(C)c1cc(O)c(C2CCCC(C)C2)c(O)c1 (mixture of isomers) [O-1657, 2-(3-Methylcyclohexyl)-5-(1′,1′-dimethylheptyl)-resorcinol] | 14 |  | 17 | 0.8 ± 0.04 | 
CCCCCCC(C)(C)c1cc(O)c([C@H]2CCCC(C)C2)c(O)c1 (single isomer, unassigned) [O-1826] | 40 |  | 50 | 0.8 ± 0.05 | 
CCCCCCC(C)(C)c1ccc(-c2cc(C)ccc2C(C)C)c(O)c1 [O-1376, 3-1′,1′-Dimethylheptyl-6-(2-isopropyl-5-methylphenyl)phenol] | 33 ± 4 |  | 11 | 3 ± 0.4 | 
CCCCCCC(C)(C)c1cc(O)c(C2CCCCC2)c(O)c1 [O-1422, Cyclohexyl-5-(1′,1′-dimethylheptyl)-resorcinol] | 11 ± 2 |  | 7 | 1.5 ± 0.1 | 
CCCCCCC(C)(C)c1cc(O)c(C2CCCCC2C)c(O)c1 (stereo not shown) [O-1658, 2-(2-Methylcyclohexyl)-5-(1′,1′-dimethylheptyl)-resorcinol] | 16 ± 2 |  | 16 | 1 ± 0.3 | 
CCCCCCC(C)(C)c1cc(O)c(C2=CCCCC2)c(O)c1 [O-1423] | 97 ± 5 |  | 3 | 28 ± 5 | 
CCCCCCC(C)(C)c1cc(O)c(C2C3CC4CC(C3)CC2C4)c(O)c1 (stereo not shown) [O-1660, 2-(2-Adamantyl)-5-(1′,1′-di-methylheptyl)-resorcinol] | 7 ± 1 |  | 2 | 3 ± 0.8 | 
